Read-outs that look alike come from different tables or passages of the source.
Target: T1, hENT1 (Homo sapiens, UniProt Q99808)
T1 construct: performed on erythrocyte cell membranes endogenously expressing the transporter; tissue Sanquin Bloedvoorziening, Amsterdam, The Netherlands; host or cells: erythrocyte membranes (endogenous expression)
T1 sequence (Q99808 1-456): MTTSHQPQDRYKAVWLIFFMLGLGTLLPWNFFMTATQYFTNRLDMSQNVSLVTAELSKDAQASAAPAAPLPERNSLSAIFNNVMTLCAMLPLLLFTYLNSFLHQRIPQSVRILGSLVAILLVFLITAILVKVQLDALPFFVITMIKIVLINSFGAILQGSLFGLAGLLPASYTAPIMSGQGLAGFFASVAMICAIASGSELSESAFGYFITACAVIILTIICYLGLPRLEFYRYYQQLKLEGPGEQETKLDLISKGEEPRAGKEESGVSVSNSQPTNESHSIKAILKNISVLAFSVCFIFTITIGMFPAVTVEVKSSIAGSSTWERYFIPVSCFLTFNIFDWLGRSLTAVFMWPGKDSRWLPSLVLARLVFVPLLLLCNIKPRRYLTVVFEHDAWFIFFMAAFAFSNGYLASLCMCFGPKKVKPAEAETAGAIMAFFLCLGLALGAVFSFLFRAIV
Experiment: time-dependent hENT1 radioligand binding assay ([3H]NBTI displacement with or without 4 h preincubation)
Conditions: for % displacement at 1 μM at 4 h preincubation / % displacement at 1 μM without preincubation / [3H]NBTI displacement: 1 µM inhibitor; for % displacement at 1 μM at 4 h preincubation / % displacement at 1 μM without preincubation: mean (individual values) of two experiments; for [3H]NBTI displacement: with or without 4 h preincubation not told apart; for time-dependent shift in affinity (pKi shift) or displacement upon 4 h preincubation: 4 h preincubation vs without preincubation
Description: Radioligand displacement assays were performed as previously described. In brief, the experiments were performed on erythrocyte membranes (Sanquin Bloedvoorziening, Amsterdam, The Netherlands) using a single concentration of 1 µM or multiple concentrations (ranging from 10^–10 to 10^–6) of unlabeled inhibitors in the presence of 4 nM [^3H]NBTI at 10 °C for 1 h in assay buffer (50 mM Tris–HCl, pH 7.4, 0.1% w/v CHAPS). Non-specific binding (NSB) was assessed with 10 µM unlabeled NBTI. […] Subsequently, [^3H]NBTI was added to the preincubated and control samples (containing erythrocyte membranes, unlabeled inhibitor and radioligand) and both types of samples were incubated for another hour. Incubation was terminated by rapid vacuum filtration over Whatman™ UniFilter™ 96-well GF/C microplates using a FilterMate™ Universal Harvester (PerkinElmer, Groningen, The Netherlands). Subsequently, the plates were washed ten times with ice-cold wash buffer (50 mM Tris–HCl, pH 7.4). Thereafter, the filters were dried for 45 min at 55 °C and 25 µL of Microscint (PerkinElmer) was added per well.
All experimental data was analyzed using GraphPad Prism 10.0.2 software (GraphPad Software Inc., San Diego, CA, USA). [^3H]NBTI assays were baseline-corrected with NSB and normalized to this value (0%) and TB (100%). The radioligand displacement curves were fitted to a one-site binding model by nonlinear regression from which the pIC50 values were obtained. […] Data shown represent the mean ± SD of at least two or mean ± SEM of at least three individual experiments each performed in duplicate.
Next, the potentially covalent inhibitors that we synthesized were subjected to the aforementioned radioligand displacement assay. To study the existence of a covalent interaction with hENT1, an additional preincubation step was included.

[1] = Ki (nM) at 4 h preincubation, 4 h preincubation at 10 °C
[2] = pKi ± SEM at 4 h preincubation, 4 h preincubation at 10 °C
[3] = without preincubation, read-out: Ki (nM) without preincubation (converted)

Compound | % displacement at 1 μM at 4 h preincubation (4 h preincubation at 10 °C) | % displacement at 1 μM without preincubation (without preincubation) | also measured
COc1cc(C(=O)OCCCN2CCN(CCOC(=O)c3cccc(S(=O)(=O)F)c3)CC2)cc(OC)c1OC [Compound 9a, 3-(4-(2-((3-(fluorosulfonyl)benzoyl)oxy)ethyl)piperazin-1-yl)propyl 3,4,5-trimethoxybenzoate] | 3 (-9, 13) % | -14 (-21, -7) % | 
COc1cc(C(=O)OCCCN2CCN(CCCOC(=O)c3cccc(S(=O)(=O)F)c3)CC2)cc(OC)c1OC [Compound 9b, 3-(4-(3-((3-(fluorosulfonyl)benzoyl)oxy)propyl)piperazin-1-yl)propyl 3,4,5-trimethoxybenzoate] | 33 (32, 34) % | 33 (32, 33) % | 
COc1cc(C(=O)OCCCN2CCN(CCCCOC(=O)c3cccc(S(=O)(=O)F)c3)CC2)cc(OC)c1OC [Compound 9c, 3-(4-(4-((3-(fluorosulfonyl)benzoyl)oxy)butyl)piperazin-1-yl)propyl 3,4,5-trimethoxybenzoate] | 51 (48, 54) % | 61 (53, 69) % | 
COc1cc(C(=O)OCCCN2CCN(CCOC(=O)c3ccc(S(=O)(=O)F)cc3)CC2)cc(OC)c1OC [Compound 9d, 3-(4-(2-((4-(fluorosulfonyl)benzoyl)oxy)ethyl)piperazin-1-yl)propyl 3,4,5-trimethoxybenzoate] | 33 (34, 32) % | 17 (12, 22) % | 
COc1cc(C(=O)OCCCN2CCN(CCCOC(=O)c3ccc(S(=O)(=O)F)cc3)CC2)cc(OC)c1OC [Compound 9e, 3-(4-(3-((4-(fluorosulfonyl)benzoyl)oxy)propyl)piperazin-1-yl)propyl 3,4,5-trimethoxybenzoate] | 26 (30, 22) % | 26 (24, 27) % | 
COc1cc(C(=O)OCCCN2CCN(CCCCOC(=O)c3ccc(S(=O)(=O)F)cc3)CC2)cc(OC)c1OC [Compound 9f, 3-(4-(4-((4-(fluorosulfonyl)benzoyl)oxy)butyl)piperazin-1-yl)propyl 3,4,5-trimethoxybenzoate] | 54 (53, 56) % | 57 (52, 62) % | 
COc1cc(C(=O)OCCCN2CCN(CCCOC(=O)c3ccc(N=C=S)cc3)CC2)cc(OC)c1OC [Compound 9g, 3-(4-(3-((4-isothiocyanatobenzoyl)oxy)propyl)piperazin-1-yl)propyl 3,4,5-trimethoxybenzoate] |  |  | Ki [1]: 29.9 nM; Ki [2]: 29.5 nM; Ki [3]: 48.5 nM
C=CC(=O)Nc1cccc(C(=O)OCCCN2CCN(CCCOC(=O)c3cc(OC)c(OC)c(OC)c3)CC2)c1 [Compound 10a, 3-(4-(3-((3-acrylamidobenzoyl)oxy)propyl)piperazin-1-yl)propyl 3,4,5-trimethoxybenzoate] | 24 (18, 30) % | 20 (15, 26) % | [3H]NBTI displacement: around 20%
C=CC(=O)Nc1ccc(C(=O)OCCCN2CCN(CCCOC(=O)c3cc(OC)c(OC)c(OC)c3)CC2)cc1 [Compound 10b, 3-(4-(3-((4-acrylamidobenzoyl)oxy)propyl)piperazin-1-yl)propyl 3,4,5-trimethoxybenzoate] |  |  | time-dependent shift in affinity (pKi shift) or displacement upon 4 h preincubation: absence of a pKi shift; Ki [1]: 43.6 nM; Ki [3]: 33.1 nM
C=CC(=O)Nc1ccc(C(=O)OCCCCN2CCN(CCCOC(=O)c3cc(OC)c(OC)c(OC)c3)CC2)cc1 [Compound 10c, 3-(4-(4-((4-acrylamidobenzoyl)oxy)butyl)piperazin-1-yl)propyl 3,4,5-trimethoxybenzoate] | 41 (30, 51) % | 47 (40, 54) % | 
C=CC(=O)Nc1ccc(C(=O)OCCCN2CCN(CCCOC(=O)c3cc(OC)c(OC)c(OC)c3)CC2)cc1OC [Compound 10d, 3-(4-(3-((4-acrylamido-3-methoxybenzoyl)oxy)propyl)piperazin-1-yl)propyl 3,4,5-trimethoxybenzoate] |  | 27 (28, 26) % | [3H]NBTI displacement: around 20%
C=CC(=O)NCc1ccc(C(=O)OCCCN2CCN(CCCOC(=O)c3cc(OC)c(OC)c(OC)c3)CC2)cc1 [Compound 10e, 3-(4-(3-((4-(acrylamidomethyl)benzoyl)oxy)propyl)piperazin-1-yl)propyl 3,4,5-trimethoxybenzoate] | 29 (20, 37) % | 29 (24, 35) % | 
C=CC(=O)NCCc1ccc(C(=O)OCCCN2CCN(CCCOC(=O)c3cc(OC)c(OC)c(OC)c3)CC2)cc1 [Compound 10f, 3-(4-(3-((4-(2-acrylamidoethyl)benzoyl)oxy)propyl)piperazin-1-yl)propyl 3,4,5-trimethoxybenzoate] | 7 (0, 13) % | 10 (2, 18) % | 
C=CC(=O)NCCOc1c(OC)cc(C(=O)OCCCN2CCN(CCCOC(=O)c3cc(OC)c(OC)c(OC)c3)CC2)cc1OC [Compound 14a, 3-(4-(3-((4-(2-acrylamidoethoxy)-3,5-dimethoxybenzoyl)oxy)propyl)piperazin-1-yl)propyl 3,4,5-trimethoxybenzoate] |  |  | time-dependent shift in affinity (pKi shift) or displacement upon 4 h preincubation: no observable pKi shift; Ki [1]: 50.6 nM; Ki [3]: 48.6 nM
C=CC(=O)NCCCOc1c(OC)cc(C(=O)OCCCN2CCN(CCCOC(=O)c3cc(OC)c(OC)c(OC)c3)CC2)cc1OC [Compound 14b, 3-(4-(3-((4-(3-acrylamidopropoxy)-3,5-dimethoxybenzoyl)oxy)propyl)piperazin-1-yl)propyl 3,4,5-trimethoxybenzoate] |  |  | time-dependent shift in affinity (pKi shift) or displacement upon 4 h preincubation: no significant increase of the affinity; Ki [2]: 3.24 nM; Ki [3]: 5.9 nM
COc1cc(C(=O)OCCCN2CCN(CCCOC(=O)c3cc(OC)c(OCCCN=C=S)c(OC)c3)CC2)cc(OC)c1OC [Compound 14c, 3-(4-(3-((4-(3-isothiocyanatopropoxy)-3,5-dimethoxybenzoyl)oxy)propyl)piperazin-1-yl)propyl 3,4,5-trimethoxybenzoate] |  |  | time-dependent shift in affinity (pKi shift) or displacement upon 4 h preincubation: no significant increase of the affinity; Ki [2]: 1.55 nM; Ki (without preincubation, read-out: pKi ± SEM without preincubation (converted)): 1.07 nM
C=CS(=O)(=O)NCCCOc1c(OC)cc(C(=O)OCCCN2CCN(CCCOC(=O)c3cc(OC)c(OC)c(OC)c3)CC2)cc1OC [Compound 14d, 3-(4-(3-((3,5-dimethoxy-4-(3-(vinylsulfonamido)propoxy)benzoyl)oxy)propyl)piperazin-1-yl)propyl 3,4,5-trimethoxybenzoate] |  |  | time-dependent shift in affinity (pKi shift) or displacement upon 4 h preincubation: no significant increase of the affinity; Ki [1]: 14.2 nM; Ki [3]: 17.5 nM

From paper PMC12061832, “Exploring novel dilazep derivatives as hENT1 inhibitors and potentially covalent molecular tools” (Purinergic Signalling, 2024)
